{"source": "patent US10934253B2", "about": "“Therapeutic compounds and methods” (UNIVERSITY OF TASMANIA, priority 2017, dated 2021)", "key": {"HepG2 cells [1]": {"test_system": "HepG2 cells", "test": "Cell viability in the presence of a mitochondrial inhibitor (rotenone 10 μM)", "format": "cell-based", "settings": "Homo sapiens, HepG2, 48 h, read-out: CELL VIABILITY [%]", "protocol": "(§1) Cytoprotection of HepG2 cells by naphthoquinones was quantified in the presence of the mitochondrial toxin, rotenone. Briefly, HepG2 cells were seeded in 96-well plates at 5000 cells/well in DMEM with 0.3 g/l glucose, 10% FBS and Penicillin-Streptomycin-Glutamine. After overnight incubation under standard conditions, cells were treated with the test compounds (10 μM) for 2 days before cells were challenged with 1 μM rotenone in the presence of 10 μM test compounds in Hank's balanced salt solution (HBSS) for 6 hours. This was followed by post-incubation for an additional 18 hours with only 10 μM test compounds in HBSS. For measurement of cell viability, cells were washed with 100 μL PBS twice and then lysed using 40 μL lysis solution (4 mM EDTA, 0.2% Triton X-100) for 5 min at room temperature (RT) on an orbital shaker at 200 rpm. Then 10 μL of the lysate was mixed with 90 μL of enzyme-substrate mixture (as described above) in a white 96 well plate and luminescence was measured immediately using a plate-reader (Fluoroscan Ascent, Thermo Scientific). The data is expressed as % viability compared to the untreated (no-rotenone) control.\nThe cytoprotective effects of representative compounds of Formula (I) were further examined in vitro in response to rotenone toxicity at (10 μM). […] Cells were treated with the representative compounds of Formula (I) compounds (10 μM) for 2 days before cells were challenged with 10 μM rotenone.\nVitamin K, Menadione and Idebenone were used as comparative controls."}, "HepG2 cells [2]": {"test_system": "HepG2 cells", "test": "Rescue of cell viability in the presence of a mitochondrial inhibitor (rotenone 1 μM)", "format": "cell-based", "settings": "Homo sapiens, HepG2", "protocol": "as §1\nThe extent of protection of cellular viability against a rotenone challenge of representative compounds of Formula (I) is shown below in Table 5. Vitamin K, Menadione and Idebenone were used as comparative controls. DMSO was used as a control."}, "[3]": {"test_system": "DSS-induced colitis in C57BL/6 mice", "test": "Dextran sulfate sodium (DSS) induced colitis mouse model", "format": "in vivo", "settings": "2.5% DSS 7 days, 200 mg/kg orally in food once daily, vs DSS controls", "protocol": "FIGS. 8-11: Ulcerative Colitis mouse model following treatment with representative compound of Formula (I) (UTA77); FIG. 8: Body weight loss; FIG. 9: Stool consistency; FIG. 10: Bloody stools; FIG. 11: Disease activity index. […] UTA77 was formulated with food powder (200 mg/kg of body weight) which was orally administered once daily over a period of 7 days.\nBody weight (refer to FIG. 8), stool consistency (refer to FIG. 9), blood content of stools (refer to FIG. 10), and general disease activity index (refer to FIG. 11) were all assessed following treatment with representative compound of Formula (I), UTA77.\nFemale C57BL/6 mice were used at 7-8 weeks of age having an average body weight≈17 g. Mice were divided randomly into three different groups: • 1. a healthy control group without DSS, • 2. a control group with DSS, • 3. a group treated with DSS and test compound (n=5 per group).\nBody weight of mice were assessed daily over an initial acclimation period of one week (FIG. 8). All mice were non-fasting and had access to food and drinking water (autoclaved tap water) ad libitum. Representative compounds of Formula (I) were formulated with food powder (200 mg/kg of body weight) to produce individual portions that were placed into the cage once a day. Representative compounds of Formula (I) (20 mg/ml) were stirred overnight at 4° C. in 500 ml 0.5% carboxymethylcellulose (CMC) solution. To 37.5 ml of the CMC solution, 41.25 g sucrose, 371.25 g food powder and 0.5% CMC solution were mixed to prepare a food mash, which was aliquoted (2.2 g portions) in weighting trays and individually stored at −20° C. Colitis was induced by supplementing 2.5% w/v of dextran sulphate sodium (DSS, MW=36,000-50,000, colitis grade, MP Biomedicals, USA) in the drinking water of mice from day 0 to day 7 (day of termination). On day 0, all mice were weighed and checked for stool consistency and occult blood before they were exposed to DSS and test compounds. Control animals were only supplied with autoclaved drinking water without DSS, and normal chow pellets, while 2.5% DSS in tap water was provided to the DSS-treated groups from day 0 to day 7. All controls groups were also supplied with 2.2 g of food mash without test compounds. The animals of the drug-treated groups received 200 mg/kg of test compounds in food mash with 2.5% of DSS in water from day 0 to day 7. Body weight (refer to FIG. 8), stool consistency (refer to FIG. 9), blood content of stools (refer to FIG. 10) were recorded daily. The Disease Activity Index (DAI) (FIG. 11) was calculated according to scoring Table 9 below. Each parameter was scored independently and all three parameters were added to calculate the DAI."}}}
{"smiles": "COc1ccc(CCNC(=O)CCCC2=C(C)C(=O)c3ccccc3C2=O)cc1OC", "note": "[UTA #77, N-(3,4-dimethoxyphenethyl)-4-(3-methyl-1,4-naphthoquinone-2-yl)butanamide]", "values": [{"measurement": "viability at 10 µM", "setting": "HepG2 cells [1]", "value": 95.9, "unit": "%"}, {"measurement": "viability at 10 µM", "setting": "HepG2 cells [2]", "value": 95.9, "unit": "%"}, {"measurement": "Bloody stools (in words)", "setting": "[3]", "value": "reduction in bloody stools"}, {"measurement": "Body weight loss (in words)", "setting": "[3]", "value": "less weight loss than DSS controls"}, {"measurement": "Disease activity index (in words)", "setting": "[3]", "value": "reduced disease activity"}, {"measurement": "Stool consistency (in words)", "setting": "[3]", "value": "improved stools"}]}
